IC50 data for one compound are collected here from ChEMBL document CHEMBL5729761, “Polycyclic compounds as allosteric SHP2 inhibitors” (2023).

This experiment addresses T1, Tyrosine-protein phosphatase non-receptor type 11 (Homo sapiens, UniProt Q06124).
T1 sequence (Q06124 whole entry): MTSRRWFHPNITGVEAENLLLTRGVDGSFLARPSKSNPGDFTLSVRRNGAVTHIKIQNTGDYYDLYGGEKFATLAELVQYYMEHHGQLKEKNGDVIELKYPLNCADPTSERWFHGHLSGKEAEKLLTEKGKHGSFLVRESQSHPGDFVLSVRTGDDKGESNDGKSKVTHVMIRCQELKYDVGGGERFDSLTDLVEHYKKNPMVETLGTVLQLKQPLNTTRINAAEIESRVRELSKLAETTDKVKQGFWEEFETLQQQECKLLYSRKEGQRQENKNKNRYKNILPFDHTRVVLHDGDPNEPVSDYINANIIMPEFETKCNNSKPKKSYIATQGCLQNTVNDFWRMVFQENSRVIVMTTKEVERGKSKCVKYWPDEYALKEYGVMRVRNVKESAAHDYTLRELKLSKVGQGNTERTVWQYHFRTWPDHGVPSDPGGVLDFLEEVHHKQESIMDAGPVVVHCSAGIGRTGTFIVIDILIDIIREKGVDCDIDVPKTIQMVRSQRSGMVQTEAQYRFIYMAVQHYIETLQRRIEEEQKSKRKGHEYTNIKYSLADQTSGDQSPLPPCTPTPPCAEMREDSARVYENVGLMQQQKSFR
Kind of experiment: SHP2 Allosteric Inhibition Assay: The inhibition of SHP2 by compounds of the invention (concentrations varying from 0.00005-10 μM) was monitored using an assay in which 0.2 nM of SHP2 was incubated with 0.5 μM of Activating Peptide 1 (sequence: H2N LN(pY)IDLDLV(dPEG8)LST(pY)ASINFQK-amide) or Activating Peptide 2 (sequence: H2N-LN(pY)AQLWHA(dPEG8)LTI(pY)ATIRRF-amide). After 30-60-minutes incubation at 25° C., the surrogate substrate DiFMUP (Invitrogen, Cat #D6567) was added to the reaction and activity was determined by a kinetic read using a microplate reader (Envision, Perkin-Elmer or Spectramax M5, Molecular Devices). The excitation and emission wavelengths were 340 nm and 450 nm, respectively. Initial rates were determined from a linear fit of the data, and the inhibitor dose response curves were analyzed using normalized IC50 regression curve fitting with control based normalization.

By IC50 is commonly meant the concentration needed to halve the response being measured. Low readings indicate greater potency, high ones weaker potency. For `Cc1nc(N2CCC3(CC2)CO[C@@H](C)[C@H]3N)n2ccnc2c1-c1ccc2nccnc2c1`, the IC50 is under 50 nM.
